Measurements from patent US8735387B2, “Oxazolopyrimidines as Edg-1 receptor agonists” (Sanofi, priority 2008, dated 2014).

The molecules below were run against T1, human Edg-1 receptor (Homo sapiens, UniProt P21453) (assay: GTP-γ-S assay using human Edg-1 receptors (scintillation proximity assay, membrane preparation from CHO Flp-In cell line)). Details: example compound at 10 μM; relative to 10 μM S1P; GTP-γ-S SPA, human Edg-1 membranes.
T1 construct: expressed in transfected cells; membrane preparation
Type: biochemical
From the text: Determination of the Pharmacological Activity A) GTP-γ-S Assay Using Human Edg-1 Receptors
In order to determine the Edg-1 receptor activation by the compounds of the invention, a GTP-γ-S (guanosine 5′-[γ-thio]triphosphate) assay for G-protein coupled receptor binding based on the scintillation proximity assay principle was used, employing a cell membrane preparation from a CHO Flp-In cell line which constitutively overexpresses the human Edg-1 receptor.
The Flp-In™ expression system (Invitrogen, cat. no. K6010-01) allows the generation of stable mammalian cell lines into which the gene of interest has been integrated through homologous recombination at a specific genomic location called Flp Recombination Target (FRT) site by means of a Flp recombinase encoded by the pOG44 expression plasmid. The integration of the pcDNA5/FRT expression construct into the Flp-In host cell line genome results in the transcription of the gene of interest. The stably transfected cells become hygromycin-resistant.
One day prior to transfection, 200 000 Flp-In-CHO cells were seeded in Ham F-12 medium (Invitrogen, cat. no. 31765) supplemented with 10% fetal calf serum (FCS; Perbio Science, cat. no. SH30068.03) in a 6-well plate and incubated at 37° C./5% CO2 overnight. Using the FuGENE® 6 transfection reagent (Roche, cat. no. 11988387001), cells were cotransfected with the Flp recombinase expression plasmid pOG44 and a modified plasmid additionally containing the edg-1 gene (accession no. NM_001400) termed as pcDNA5-FRT-TO_nFLAG_DEST-EDG-1 with a 9:1 ratio. To obtain the modified pcDNA5-FRT-TO_nFLAG_DEST plasmid, the Invitrogen plasmid pcDNA5/FRT/TO (Invitrogen, cat. no. V6520-20) was adapted to the Gateway® (Invitrogen) cloning system by inserting a Gateway cassette containing attR recombination sites flanking a ccdB gene and a chloramphenicol-resistance gene (Gateway conversion system, Invitrogen, cat. no. 11828-029). In addition a FLAG tag epitope was added before the 5′ att recombination site to allow recombinant expression of N-terminally FLAG-tagged proteins.
For the transfection of one well, 1.08 μg of pOG44 and 0.12 μg of pcDNA5-FRT-TO_nFLAG_DEST-EDG-1 were mixed to 100 μl of serum-free Ham F-12 medium containing 6 μl of FuGENE® 6 transfection reagent. After 20 min of incubation, the transfection reagent/DNA complex was distributed dropwise on the cells. The cells were incubated for 24 h at 37° C. Then the cells from 3 wells each were transferred to a T75 flask (Greiner Cellstar®, cat. no. 658175) containing Ham F-12 medium supplemented with 10% of FCS but without antibiotic and were incubated another 24 h. 48 h after transfection, the medium was replaced by selection medium (Ham F-12 supplemented with 10% of FCS and 300 μg/ml of hygromycin B (Invitrogen, cat. no. 10687-010)). The medium was exchanged every 2 to 3 days until a resistant population of cells had grown. […] After 2 weeks of selection, the cells were transferred into T175 flasks (Greiner Cellstar®, cat. no. 660175) and cultivated for batch production. Cells were harvested from the culture flasks by short treatment (2 to 5 min) with Accutase (PAA, cat. no. L11-007), resuspended in selection medium (see above) and centrifuged at 200×g for 5 min. Cells were resuspended in a mixture of 90% of FCS and 10% of dimethylsulfoxide and stored frozen in liquid nitrogen.
A membrane preparation was obtained by standard methods from the afore-described CHO Flp-In cell line constitutively overexpressing the human Edg-1 receptor. Briefly, the cryopreserved cells were taken in culture and grown until confluency in T175 cell culture flasks (Becton Dickinson, cat. no. 35 5001). […]

T1 sequence (P21453 whole entry): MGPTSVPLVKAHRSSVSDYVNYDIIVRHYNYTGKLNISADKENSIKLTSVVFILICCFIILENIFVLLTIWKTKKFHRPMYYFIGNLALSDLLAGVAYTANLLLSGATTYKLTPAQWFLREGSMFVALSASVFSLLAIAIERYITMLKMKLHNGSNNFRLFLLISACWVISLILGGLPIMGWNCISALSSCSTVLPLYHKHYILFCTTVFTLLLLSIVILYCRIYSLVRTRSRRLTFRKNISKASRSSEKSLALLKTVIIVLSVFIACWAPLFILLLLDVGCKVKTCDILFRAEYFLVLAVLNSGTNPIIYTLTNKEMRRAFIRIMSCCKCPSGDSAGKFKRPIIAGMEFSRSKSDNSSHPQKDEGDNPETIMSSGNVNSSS

Row | % Activation (Edg-1 receptor activation in percent of the activation by 10 μM S1P) | SMILES
1 | 116% | CCCOc1nc(CN2CCOCC2)nc2oc(-c3ccccc3)nc12 [Example 41]
2 | 122% | CCCOc1nc(CN2CCCOCC2)nc2oc(-c3ccccc3)nc12 [Example 43]
3 | 107% | CCCOc1nc(CN2CCOCC2)nc2oc(-c3ccc(F)c(F)c3)nc12 [Example 66]
4 | 105% | CCCOc1nc(CN2CCCOCC2)nc2oc(-c3ccc(F)c(F)c3)nc12 [Example 67]
5 | 116% | CCCOc1nc(CN2CCOCC2)nc2oc(-c3ccnc(Cl)c3)nc12 [Example 71]
6 | 99% | CCCOc1nc(CN2CCOCC2)nc2oc(-c3cccc(C(F)(F)F)c3)nc12 [Example 72]
7 | 114% | CCCOc1nc(CN2CCCOCC2)nc2oc(-c3cc(Cl)ccc3OC)nc12 [Example 74]
8 | 72% | CCCOc1nc(CN2CCOCC2)nc2oc(-c3cc(Cl)ccc3OC)nc12 [Example 75]
9 | 104% | CCCOc1nc(CN2CCC(F)(F)CC2)nc2oc(-c3cc(Cl)ccc3OC)nc12 [Example 76]
10 | 112% | CCCOc1nc(CN2CCOCC2)nc2oc(-c3ccc(Cl)c(Cl)c3)nc12 [Example 77]
11 | 103% | CCCOc1nc(CN2CCCOCC2)nc2oc(-c3ccc(Cl)c(Cl)c3)nc12 [Example 78]
12 | 65% | CCCOc1nc(CN2CCCOCC2)nc2oc(-c3cc(OC)ccc3OC)nc12 [Example 80]
13 | 83% | CCCOc1nc(CN2CCC(F)(F)CC2)nc2oc(-c3cc(OC)ccc3OC)nc12 [Example 81]
14 | 104% | CCCOc1nc(CN2CCOCC2)nc2oc(-c3c(F)ccc(F)c3F)nc12 [Example 82]
15 | 108% | CCCOc1nc(CN2CCOCC2)nc2oc(-c3cc(F)c(F)cc3Cl)nc12 [Example 84]
16 | 104% | CCCOc1nc(CN2CCCOCC2)nc2oc(-c3cc(F)c(F)cc3Cl)nc12 [Example 85]
17 | 120% | CCCOc1nc(CN2CCCOCC2)nc2oc(-c3c(F)ccc(F)c3F)nc12 [Example 86]
18 | 101% | CCCOc1nc(CN2CCOCC2)nc2oc(-c3ccc(OC)c(F)c3)nc12 [Example 88]
19 | 107% | CCCOc1nc(CN2CCOCC2)nc2oc(-c3ccc(Cl)c(F)c3)nc12 [Example 89]

Continued, molecule first:

Row | SMILES | % Activation (Edg-1 receptor activation in percent of the activation by 10 μM S1P)
20 | CCCOc1nc(CN2CCC(F)(F)CC2)nc2oc(-c3cncc(F)c3)nc12 [Example 40] | 123%
21 | CCCOc1nc(CN2CCC(F)(F)CC2)nc2oc(-c3ccccc3)nc12 [Example 42] | 92%
22 | CCCOc1nc(Cn2ccnn2)nc2oc(-c3cccc(F)c3)nc12 [Example 44] | 78%
23 | CCCOc1nc(CN2CCS(=O)(=O)CC2)nc2oc(-c3cccc(F)c3)nc12 [Example 45] | 69%
24 | CCCOc1nc(CN2CC[S+]([O-])CC2)nc2oc(-c3cccc(F)c3)nc12 [Example 46] | 35%
25 | CCCOc1nc(CN2CC(C)OC(C)C2)nc2oc(-c3cccc(F)c3)nc12 (stereo not drawn) [Example 47] | 85%
26 | CCCOc1nc(Cn2ccnc2C)nc2oc(-c3cccc(F)c3)nc12 [Example 48] | 81%
27 | CCCOc1nc(CN2CC3CC2CO3)nc2oc(-c3cccc(F)c3)nc12 (stereo not drawn) [Example 49] | 48%
28 | CCCOc1nc(CN2CCCC(F)(F)C2)nc2oc(-c3cccc(F)c3)nc12 [Example 50] | 102%
29 | CCCOc1nc(CN2CC(C(=O)O)C2)nc2oc(-c3cccc(F)c3)nc12 [Example 51] | 24%
30 | CCCOc1nc(CN2CC(C(=O)OC)C2)nc2oc(-c3cccc(F)c3)nc12 [Example 52] | 35%
31 | CCCOc1nc(CN2C(=O)CN(C)C2=O)nc2oc(-c3cccc(F)c3)nc12 [Example 53] | 69%
32 | CCCOc1nc(Cn2cnc(CO)c2)nc2oc(-c3cccc(F)c3)nc12 [Example 54] | 30%
33 | CCCOc1nc(CN2CCN(S(C)(=O)=O)CC2)nc2oc(-c3cccc(F)c3)nc12 [Example 55] | 22%
34 | CCCOc1nc(Cn2cnc(C(=O)OC)c2)nc2oc(-c3cccc(F)c3)nc12 [Example 56] | 44%
35 | CCCOc1nc(Cn2cnc(C)c2)nc2oc(-c3cccc(F)c3)nc12 [Example 57] | 99%

Row | SMILES | % Activation (Edg-1 receptor activation in percent of the activation by 10 μM S1P)
36 | CCCOc1nc(Cn2cc(C)cn2)nc2oc(-c3cccc(F)c3)nc12 [Example 58] | 35%
37 | CCCOc1nc(Cn2cnc(-c3ccccc3)c2)nc2oc(-c3cccc(F)c3)nc12 [Example 59] | 30%
38 | CCCOc1nc(Cn2cncc2C(=O)OC)nc2oc(-c3cccc(F)c3)nc12 [Example 60] | 64%
39 | CCCOc1nc(Cn2ccnc2)nc2oc(-c3cccc(F)c3)nc12 [Example 61] | 76%
40 | CCCOc1nc(CN2C(=O)COCC2=O)nc2oc(-c3cccc(F)c3)nc12 [Example 62] | 94%
41 | CCCOc1nc(CN2C(=O)CCCC2=O)nc2oc(-c3cccc(F)c3)nc12 [Example 63] | 102%
42 | CCCOc1nc(CN2CCSC2)nc2oc(-c3cccc(F)c3)nc12 [Example 64] | 93%
43 | CCCOc1nc(CN2CCSCC2)nc2oc(-c3cccc(F)c3)nc12 [Example 65] | 109%
44 | CCCOc1nc(CN2CCC(F)(F)CC2)nc2oc(-c3ccc(F)c(F)c3)nc12 [Example 68] | 120%
45 | CCCOc1nc(CN2CCCC(F)C2)nc2oc(-c3cccc(F)c3)nc12 (stereo not drawn) [Example 69] | 113%
46 | CCCOc1nc(CN2CCC(F)CC2)nc2oc(-c3cccc(F)c3)nc12 [Example 70] | 113%
47 | CCCOc1nc(CN2CCC(F)(F)CC2)nc2oc(-c3cccc(C(F)(F)F)c3)nc12 [Example 73] | 120%
48 | CCCOc1nc(CN2CCC(F)(F)CC2)nc2oc(-c3ccc(Cl)c(Cl)c3)nc12 [Example 79] | 111%
49 | CCCOc1nc(CN2CCC(F)(F)CC2)nc2oc(-c3c(F)ccc(F)c3F)nc12 [Example 83] | 111%
50 | CCCOc1nc(CN2CCC(F)(F)CC2)nc2oc(-c3cc(F)c(F)cc3Cl)nc12 [Example 87] | 92%
51 | CCCOc1nc(CN2CCC(F)(F)CC2)nc2oc(-c3ccc(Cl)c(F)c3)nc12 [Example 90] | 115%
